Source: patent publication US20260183407A1, “DYRK/CLK PROTACS AND USES THEREOF” (Arizona Board of Regents on Behalf of the University of …, priority 2022, published 2026)

How the values were obtained:
DYRK1A [1] = target: T1, DYRK1A (Homo sapiens, UniProt Q13627); assay: HiBiT split luciferase assay of targeted degradation of DYRK1A in Flp-In T-REx 293 cells; format: cell-based; details: 300 nM compound, 24 h, HiBiT-tagged DYRK1A in Flp-In T-REx 293 cells, normalized to vehicle; read-out: Relative Degradation at 300 nM DYRK1A
T1 construct: purchased Eurofins; host or cells: E. coli BL21-derived (T7 phage display) or HEK-293
Excerpt: The Flp-In T-REx 293 Cell Line and the pcDNA5/FRT/TO vector (Invitrogen) were used to generate stable cell clones for tetracyclin-inducible expression of DYRK1A and DYRK1B. These cells contain a single stably integrated Flp recognition target (FRT) site, which allows for site-specific integration of the expression cassette by the Flp (Flippase) recombinase. DYRK1 constructs were designed to contain a C-terminal HiBiT tag for quantitative detection of HiBiT-tagged proteins in cellular lysates with the help a split luciferase assay (Nano-Glo HiBiT Lytic Detection System, Promega). To monitor the targeted degradation of DYRK1A or DYRK1B, cells were seeded in 96-well plates (10,000 cells/per well) and treated with doxycyclineinal concentration 2 μg/ml) to induce DYRK1 expression. Compounds with presumed PROTAC activity were administered 24 h after seeding. After further incubation for 24 h, cells were grossly and microscopically inspected for overt toxicity. Cells were lysed in 100 μL ice-cold passive lysis buffer (PLB, Promega) by orbital shaking (30 min on ice) before lysates were centrifuged in PCR tube (20 min 20,000 g, RT). A 10 μl aliquot of the supernatant was subjected to the HiBiT lytic assay. Luminescence was quantified in an Orion Microplate luminometer (Berthold Detection System, Germany). All compounds were tested in duplicate or triplicate wells (technical replicates) and at least two independent experiments. Relative degradation was calculated by normalization to vehicle-treated control samples.

DYRK1A [2] = target: T1, DYRK1A; assay: KdELECT kinase binding assay (Eurofins), DYRK1A; details: 11-point 3-fold dilution series, qPCR readout; read-out: Binding Affinity (Kd) DYRK1A
Protocol: (§1) KDs were obtained from Eurofins who used the following procedure: Kinase tagged T7 phase strains were prepared in an E. coli host derived from the BL21 strain. E. coli were grown to log-phase and infected with T7 phage and incubated with shaking at 32° C. until lysis. The lysates were centrifuged and filtered to remove cell debris. The remaining kinases were produced in HEK-293 cells and subsequently tagged with DNA for qPCR detection. Streptavidin-coated magnetic beads were treated with biotinylated small molecule ligands for 30 minutes at room temperature to generate affinity resins for kinase assays. The liganded beads were blocked with excess biotin and washed with locking buffer (SeaBlock (Pierce), 1% BSA, 0.05% Tween 20, 1 mM DTT) to remove unbound ligand and to reduce non-specific binding. Binding reactions were assembled by combining kinases, liganded affinity beads, and test compounds in 1× binding buffer (20% SeaBlock, 0.17× PBS, 0.05% Tween 20, 6 mM DTT). Test compounds were prepared as 111X stocks in 100% DMSO. Kds were determined using a 11-poin 3-fold compound dilution series with three DMSO control points. All compounds for Kd measurements are distributed by acoustic transfer (non-contact dispensing) in 100% DMSO. The compounds were then diluted directly into the assays such that the final concentration of DMSO was 0.9%. All reactions performed in polypropylene 384-well plate. Each was a final volume of 0.02 mL. The assay plates were incubated at room temperature with shaking for 1 hour and the affinity beads were washed with wash buffer (1×PBS, 0.05% Tween 20). The beads were then resuspended in elution buffer (1X PBS, 0.05% Tween 20, 0.5 µM nonbiotinylated affinity ligand) and incubated at room temperature with shaking for 30 minutes. The kinase concentration in the eluates was measured by qPCR.

DYRK1B = target: T2, DYRK1B (Homo sapiens, UniProt Q9Y463); assay: KdELECT kinase binding assay (Eurofins), DYRK1B; details: 11-point 3-fold dilution series, qPCR readout; read-out: Binding Affinity (Kd) DYRK1B
T2 construct: purchased Eurofins; host or cells: E. coli BL21-derived (T7 phage display) or HEK-293
T2 sequence (Q9Y463 whole entry, species assumed): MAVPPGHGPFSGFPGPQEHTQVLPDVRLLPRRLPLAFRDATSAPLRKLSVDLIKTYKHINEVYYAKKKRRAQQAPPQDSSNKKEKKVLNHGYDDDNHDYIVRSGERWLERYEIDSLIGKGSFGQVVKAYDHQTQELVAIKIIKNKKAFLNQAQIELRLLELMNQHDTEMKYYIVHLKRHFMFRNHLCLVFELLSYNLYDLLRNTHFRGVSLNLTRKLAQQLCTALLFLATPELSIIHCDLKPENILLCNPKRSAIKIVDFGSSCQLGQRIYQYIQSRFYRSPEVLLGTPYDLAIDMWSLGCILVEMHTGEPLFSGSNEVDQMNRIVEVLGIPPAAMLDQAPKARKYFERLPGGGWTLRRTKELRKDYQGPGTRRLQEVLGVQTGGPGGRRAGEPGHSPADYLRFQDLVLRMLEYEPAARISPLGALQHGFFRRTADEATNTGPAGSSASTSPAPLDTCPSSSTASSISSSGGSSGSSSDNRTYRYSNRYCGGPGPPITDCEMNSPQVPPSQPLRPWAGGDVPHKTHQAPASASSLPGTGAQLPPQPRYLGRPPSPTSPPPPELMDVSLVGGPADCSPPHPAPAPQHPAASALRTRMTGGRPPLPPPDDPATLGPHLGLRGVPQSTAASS
Protocol: as §1

SMILES | inhibition at 0.3 µM (DYRK1A [1]) | Kd (DYRK1A [2]) | Kd (DYRK1B)
Cc1nc2ccc(-c3ccnc(N)c3)nc2n1-c1ccc(N2CCN(CC#Cc3ccc(N4CCC(O)(C(=O)N5CCC(n6cc(CNc7cccc8c7C(=O)N(C7CCC(=O)NC7=O)C8=O)cn6)CC5)CC4)nc3)CC2)c(F)c1 (stereo not drawn) [Compound 33, 4-(((1-(1-(1-(5-(3-(4-(4-(5-(2-aminopyridin-4-yl)-2-methyl-3H-imidazo[4,5-b]pyridin-3-yl)-2-fluorophenyl)piperazin-1-yl)prop-1-yn-1-yl)pyridin-2-yl)-4-hydroxypiperidine-4-carbonyl)piperidin-4-yl)-1H-pyrazol-4-yl)methyl)amino)-2-(2,6-dioxopiperidin-3-yl)isoindoline-1,3-dione] | > 60% |  | 
Cc1nc2ccc(-c3ccnc(N)c3)nc2n1-c1cc(F)c(N2CCN(C3CCN(CC#Cc4ccc(N5CCC(C(=O)N6CCC(n7cc(CNc8cccc9c8C(=O)N(C8CCC(=O)NC8=O)C9=O)cn7)CC6)CC5)nc4)CC3)CC2)c(F)c1 (stereo not drawn) [Compound 36, 4-(((1-(1-(1-(5-(3-(4-(4-(4-(5-(2-aminopyridin-4-yl)-2-methyl-3H-imidazo[4,5-b]pyridin-3-yl)-2,6-difluorophenyl)piperazin-1-yl)piperidin-1-yl)prop-1-yn-1-yl)pyridin-2-yl)piperidine-4-carbonyl)piperidin-4-yl)-1H-pyrazol-4-yl)methyl)amino)-2-(2,6-dioxopiperidin-3-yl)isoindoline-1,3-dione] |  | < 10 nM | < 10 nM
COc1cc(-n2c(C)nc3ccc(-c4ccnc(N)c4)nc32)ccc1N1CCN(CCC#Cc2ccc(N3CCC(C(=O)N4CCC(n5cc(CNc6cccc7c6C(=O)N(C6CCC(=O)NC6=O)C7=O)cn5)CC4)CC3)nc2)CC1 (stereo not drawn) [Compound 38, 4-(((1-(1-(1-(5-(4-(4-(4-(5-(2-aminopyridin-4-yl)-2-methyl-3H-imidazo[4,5-b]pyridin-3-yl)-2-methoxyphenyl)piperazin-1-yl)but-1-yn-1-yl)pyridin-2-yl)piperidine-4-carbonyl)piperidin-4-yl)-1H-pyrazol-4-yl)methyl)amino)-2-(2,6-dioxopiperidin-3-yl)isoindoline-1,3-dione] |  | < 10 nM | 10 to 100 nM
Cc1nc2ccc(-c3ccnc(N)c3)nc2n1-c1cc(F)c(N2CC3(CN(CC#Cc4ccc(N5CCC(C(=O)N6CCC(n7cc(CNc8cccc9c8C(=O)N(C8CCC(=O)NC8=O)C9=O)cn7)CC6)CC5)nc4)C3)C2)c(F)c1 (stereo not drawn) [Compound 40, 4-(((1-(1-(1-(5-(3-(6-(4-(5-(2-aminopyridin-4-yl)-2-methyl-3H-imidazo[4,5-b]pyridin-3-yl)-2,6-difluorophenyl)-2,6-diazaspiro[3.3]heptan-2-yl)prop-1-yn-1-yl)pyridin-2-yl)piperidine-4-carbonyl)piperidin-4-yl)-1H-pyrazol-4-yl)methyl)amino)-2-(2,6-dioxopiperidin-3-yl)isoindoline-1,3-dione] |  | < 10 nM | 10 to 100 nM
Cc1nc2ccc(-c3ccnc(N)c3)nc2n1-c1cc(F)c(N2C[C@@H](C)N(CC#Cc3ccc(N4CCC(C(=O)N5CCC(n6cc(CNc7cccc8c7C(=O)N(C7CCC(=O)NC7=O)C8=O)cn6)CC5)CC4)nc3)[C@@H](C)C2)c(F)c1 (stereo partly drawn) [Compound 37, 4-(((1-(1-(1-(5-(3-((2S,6R)-4-(4-(5-(2-aminopyridin-4-yl)-2-methyl-3H-imidazo[4,5-b]pyridin-3-yl)-2,6-difluorophenyl)-2,6-dimethylpiperazin-1-yl)prop-1-yn-1-yl)pyridin-2-yl)piperidine-4-carbonyl)piperidin-4-yl)-1H-pyrazol-4-yl)methyl)amino)-2-(2,6-dioxopiperidin-3-yl)isoindoline-1,3-dione] |  | < 10 nM | 10 to 100 nM
Cc1nc2ccc(-c3ccnc(N)c3)nc2n1-c1cc(F)c(N2CCN(CC#Cc3ccc(N4CCC(C(=O)N5CCC(n6cc(COc7ccc(C8CCC(=O)NC8=O)cc7)cn6)CC5)CC4)nc3)CC2)c(F)c1 (stereo not drawn) [Compound 34, 3-(4-((1-(1-(1-(5-(3-(4-(4-(5-(2-aminopyridin-4-yl)-2-methyl-3H-imidazo[4,5-b]pyridin-3-yl)-2,6-difluorophenyl)piperazin-1-yl)prop-1-yn-1-yl)pyridin-2-yl)piperidine-4-carbonyl)piperidin-4-yl)-1H-pyrazol-4-yl)methoxy)phenyl)piperidine-2,6-dione] |  | < 10 nM | < 10 nM
Cc1nc2ccc(-c3ccnc(N)c3)nc2n1-c1cc(F)c(N2CCN(C3CN(CC#Cc4ccc(N5CCC(C(=O)N6CCC(n7cc(CNc8cccc9c8C(=O)N(C8CCC(=O)NC8=O)C9=O)cn7)CC6)CC5)nc4)C3)CC2)c(F)c1 (stereo not drawn) [Compound 39, 4-(((1-(1-(1-(5-(3-(3-(4-(4-(5-(2-aminopyridin-4-yl)-2-methyl-3H-imidazo[4,5-b]pyridin-3-yl)-2,6-difluorophenyl)piperazin-1-yl)azetidin-1-yl)prop-1-yn-1-yl)pyridin-2-yl)piperidine-4-carbonyl)piperidin-4-yl)-1H-pyrazol-4-yl)methyl)amino)-2-(2,6-dioxopiperidin-3-yl)isoindoline-1,3-dione] |  | < 10 nM | < 10 nM
Cc1nc2ccc(-c3ccnc(N)c3)nc2n1-c1ccc(N2CCN(CCOCCOCCOCCC(=O)NC3CN(c4ccc5c(c4)C(=O)N(C4CCC(=O)NC4=O)C5=O)C3)CC2)c(F)c1 (stereo not drawn) [Compound 8, 3-(2-(2-(2-(4-(4-(5-(2-aminopyridin-4-yl)-2-methyl-3H-imidazo[4,5-b]pyridin-3-yl)-2-fluorophenyl)piperazin-1-yl)ethoxy)ethoxy)ethoxy)-N-(1-(2-(2,6-dioxopiperidin-3-yl)-1,3-dioxoisoindolin-5-yl)azetidin-3-yl)propanamide] | < 30% | < 10 nM | 
Cc1nc2ccc(-c3ccnc(N)c3)nc2n1-c1ccc(N2CCN(C(=O)CCCCCN3CCN(Cc4ccc(CNc5cccc6c5CN(C5CCC(=O)NC5=O)C6=O)cc4)CC3)CC2)c(F)c1 (stereo not drawn) [Compound 15, 3-(4-((4-((4-(6-(4-(4-(5-(2-aminopyridin-4-yl)-2-methyl-3H-imidazo[4,5-b]pyridin-3-yl)-2-fluorophenyl)piperazin-1-yl)-6-oxohexyl)piperazin-1-yl)methyl)benzyl)amino)-1-oxoisoindolin-2-yl)piperidine-2,6-dione] | < 30% | < 10 nM | 
Cc1nc2ccc(-c3ccnc(N)c3)nc2n1-c1ccc(N2CCN(CCOCCOCCOCCC(=O)N3CCN(c4ccc5c(c4)C(=O)N(C4CCC(=O)NC4=O)C5=O)CC3)CC2)c(F)c1 (stereo not drawn) [Compound 9, 5-(4-(3-(2-(2-(2-(4-(4-(5-(2-aminopyridin-4-yl)-2-methyl-3H-imidazo[4,5-b]pyridin-3-yl)-2-fluorophenyl)piperazin-1-yl)ethoxy)ethoxy)ethoxy)propanoyl)piperazin-1-yl)-2-(2,6-dioxopiperidin-3-yl)isoindoline-1,3-dione] | < 30% | < 10 nM | 
Cc1nc2ccc(-c3ccnc(N)c3)nc2n1-c1ccc(N2CCN(C(=O)CN3CCC(CC(=O)N4CCC(n5cc(CNc6cccc7c6C(=O)N(C6CCC(=O)NC6=O)C7=O)cn5)CC4)CC3)CC2)c(F)c1 (stereo not drawn) [Compound 17, 4-(((1-(1-(2-(1-(2-(4-(4-(5-(2-aminopyridin-4-yl)-2-methyl-3H-imidazo[4,5-b]pyridin-3-yl)-2-fluorophenyl)piperazin-1-yl)-2-oxoethyl)piperidin-4-yl)acetyl)piperidin-4-yl)-1H-pyrazol-4-yl)methyl)amino)-2-(2,6-dioxopiperidin-3-yl)isoindoline-1,3-dione] | < 30% | < 10 nM | 
